Laboratory results from patent US20250188044A1 (HARBIN MEDISAN PHARMACEUTICAL CO., LTD., priority 2021, published 2025).
Where two headings read alike, the source gives them in different places.

What was measured:
[1] = biological target: T1, PPARα (Homo sapiens, UniProt Q07869); test: Gal4-PPARα(LBD) reporter gene agonistic activity assay in Cos-7 cells; type: cell-based; conditions: for EC50: Cos-7 cells, Gal4-PPARα(LBD) reporter, 16 h, 100% = GW7647 10 nM; for agonistic activity for PPARα (EC50 level, in words): Cos-7 reporter assay
T1 construct: hPPARα (279aa-580aa); expressed in transfected cells; host or cells: Cos-7
T1 sequence (Q07869 167-468 limits assumed): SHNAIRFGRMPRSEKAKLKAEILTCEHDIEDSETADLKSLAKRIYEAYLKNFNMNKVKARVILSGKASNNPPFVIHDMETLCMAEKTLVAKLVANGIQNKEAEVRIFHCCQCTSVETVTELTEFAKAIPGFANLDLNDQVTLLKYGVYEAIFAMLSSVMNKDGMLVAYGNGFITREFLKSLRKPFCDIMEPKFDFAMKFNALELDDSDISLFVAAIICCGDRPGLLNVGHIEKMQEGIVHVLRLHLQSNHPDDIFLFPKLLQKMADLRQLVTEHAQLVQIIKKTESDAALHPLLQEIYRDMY
Description: (§1) Cos-7 cells (African green monkey kidney fibroblasts, commonly used tool cells) were cultured in a 10 cm cell culture dish in a DMEM complete medium containing 10% fetal bovine serum. When the cells grew to a density of about 70%, the medium was replaced with a fresh medium for later transfection. […] The plasmid working solution was then added to the cell culture dish for cell transfection. […] Test compounds were prepared into appropriate test concentrations with a complete medium and then added to the 96-well plate. […] 10 μL of lysate was pipetted into a white opaque 384-well plate, and then 10 μL of reporter gene assay buffer (purchased from Shanghai Beyotime Biological Tech. Co., Ltd.) was added. The bioluminescence was detected by using a multimode microplate reader, and the corresponding half maximal effective concentration (EC50) value was calculated according to the detection value.

[2] = biological target: T2, PPARγ (Homo sapiens, UniProt P37231); test: Gal4-PPARγ(LBD) reporter gene agonistic activity assay in Cos-7 cells; type: cell-based
T2 construct: hPPARγ (281aa-554aa); expressed in transfected cells; host or cells: Cos-7
T2 sequence (P37231 232-505 limits assumed): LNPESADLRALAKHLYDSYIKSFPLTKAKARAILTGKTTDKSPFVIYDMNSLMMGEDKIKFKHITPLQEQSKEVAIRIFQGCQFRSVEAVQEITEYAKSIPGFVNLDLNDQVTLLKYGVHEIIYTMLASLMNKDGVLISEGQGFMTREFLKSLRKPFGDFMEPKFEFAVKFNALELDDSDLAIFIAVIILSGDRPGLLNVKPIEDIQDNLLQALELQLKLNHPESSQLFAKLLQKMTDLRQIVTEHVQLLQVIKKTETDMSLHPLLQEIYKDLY
Description: as §1

[3] = Metabolic stability in human liver microsomes; type: in vitro ADME; conditions: for half-life: human liver microsomes 0.75 mg/mL, NADPH, 0-60 min
Description: A 500 μM solution of the compound in acetonitrile was prepared and diluted to obtain a 1.5 μM drug working solution with a 0.1 M potassium phosphate solution. The drug working solution was co-incubated with a human liver microsome working solution at a final concentration of 0.75 mg/mL and an NADPH solution (final concentration: 550 μM), and the incubation was terminated by adding an acetonitrile solution at 0 min, 15 min, 30 min, 45 min, and 60 min. The residual amount of the compound that remained in the system at each time point was detected by using LC/MS. The absolute value k of the slope was determined by plotting the natural logarithm of the percentage of the residual amount of the compound with the time, and the calculation was performed according to the formula: T1/2 (half-life)=ln2/k=0.693/k.

[4] = biological target: T3, PPARδ (Homo sapiens, UniProt Q03181); test: Gal4-PPARδ(LBD) reporter gene agonistic activity assay in Cos-7 cells; type: cell-based; conditions: for agonistic activity for PPARδ (EC50 level, in words): Cos-7 reporter assay
T3 construct: expressed in transfected cells; host or cells: Cos-7
T3 sequence (Q03181 139-441 limits assumed): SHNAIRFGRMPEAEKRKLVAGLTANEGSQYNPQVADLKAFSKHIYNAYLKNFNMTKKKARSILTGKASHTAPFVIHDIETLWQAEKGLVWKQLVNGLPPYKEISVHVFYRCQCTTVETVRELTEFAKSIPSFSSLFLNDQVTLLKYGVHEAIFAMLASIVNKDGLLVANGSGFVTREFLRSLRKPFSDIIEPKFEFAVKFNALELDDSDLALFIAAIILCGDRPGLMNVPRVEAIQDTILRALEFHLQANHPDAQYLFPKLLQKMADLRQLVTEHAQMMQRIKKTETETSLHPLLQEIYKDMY
Description: as §1

[5] = Cos-7 cells, Gal4-PPARγ(LBD) reporter, 16 h, 100% = Rosiglitazone 1 μM
[6] = Cos-7 cells, Gal4-PPARδ(LBD) reporter, 16 h, 100% = GW501516 10 nM

Row | Structure (SMILES) | EC50 [1] [µM] | agonistic activity for PPARα (EC50 level, in words) [1] | EC50 [2, 5] [µM] | metabolic stability in human liver microsomes (in words) [3] | half-life [3] [h] | EC50 [4] [µM] | agonistic activity for PPARδ (EC50 level, in words) [4] | EC50 [4, 6] [µM] | EC50 [2] [µM]
1 | Cc1cc(Cn2ncn(-c3ccc(C(F)(F)F)cc3)c2=O)cc(Cl)c1OC(C)(C)C(=O)O [Compound 143, 2-(2-Chloro-6-methyl-4-((5-oxo-4-(4-(trifluoromethyl)phenyl)-4,5-dihydro-1H-1,2,4-triazol-1-yl)methyl)phenoxy)-2-methylpropionic acid] | 0.009 | at nanomolar levels | 1.79 | very good metabolic stability in human liver microsomes | > 2 | 0.015 | at nanomolar levels |  | 
2 | CC(C)(Oc1c(Cl)cc(Cn2ncn(-c3ccc(C(F)(F)F)cc3)c2=O)cc1Cl)C(=O)O [Compound 129, 2-(2,6-Dichloro-4-((5-oxo-4-(4-(trifluoromethyl)phenyl)-4,5-dihydro-1H-1,2,4-triazol-1-yl)methyl)phenoxy)-2-methylpropionic acid] | 0.023 | at nanomolar levels | 4.91 | very good metabolic stability in human liver microsomes | > 2 |  |  |  | 
3 | CC(C)(Oc1ccc(Cn2ncn(-c3ccc(OC(F)(F)F)cc3)c2=O)cc1OC(F)(F)F)C(=O)O [Compound 103, 2-Methyl-2-(4-((5-oxo-4-(4-(trifluoromethoxy)phenyl)-4,5-dihydro-1H-1,2,4-triazol-1-yl)methyl)-2-(trifluoromethoxy)phenoxy)propionic acid] | 0.215 |  | 4.68 |  |  |  |  | 0.278 | 
4 | CCc1cc(Cn2ncn(-c3ccc(OC(F)(F)F)cc3)c2=O)cc(CC)c1OC(C)(C)C(=O)O [Compound 189, 2-(2,6-Diethyl-4-((5-oxo-4-(4-(trifluoromethoxy)phenyl)-4,5-dihydro-1H-1,2,4-triazol-1-yl)methyl)phenoxy)-2-methylpropionic acid] | 0.059 | at nanomolar levels |  |  |  |  | at nanomolar levels | 0.042 | 2.19
5 | COc1ccc(-n2cnn(Cc3cc(C)c(OC(C)(C)C(=O)O)c(C)c3)c2=O)cc1 [Compound 107, 2-(4-((4-(4-Methoxyphenyl)-5-oxo-4,5-dihydro-1H-1,2,4-triazol-1-yl)methyl)-2,6-dimethylphenoxy)-2-methylpropionic acid] | 0.144 |  | 2.02 |  |  |  |  | 0.278 | 
6 | Cc1cc(Cn2ncn(-c3ccc(C(F)(F)F)cc3)c2=O)cc(C(F)(F)F)c1OC(C)(C)C(=O)O [Compound 165, 2-Methyl-2-(2-methyl-4-((5-oxo-4-(4-(trifluoromethyl)phenyl)-4,5-dihydro-1H-1,2,4-triazol-1-yl)methyl)-6-(trifluoromethyl)phenoxy)propionic acid] |  |  | 0.812 | very good metabolic stability in human liver microsomes | > 2 | 0.001 | at nanomolar levels |  | 
7 | CC(C)(Oc1ccc(Cn2ncn(-c3ccc(OC(F)(F)F)cc3)c2=O)cc1C(F)(F)F)C(=O)O [Compound 157, 2-Methyl-2-(4-((5-oxo-4-(4-(trifluoromethoxy)phenyl)-4,5-dihydro-1H-1,2,4-triazol-1-yl)methyl)-2-(trifluoromethyl)phenoxy)propionic acid] | 0.273 |  | 1.66 |  |  |  |  |  | 
8 | CC(C)(Oc1ccc(Cn2ncn(-c3ccc(OC(F)(F)F)cc3)c2=O)cc1Cl)C(=O)O [Compound 105] | 0.172 |  | 4.92 |  |  |  |  | 0.323 | 
9 | Cc1cc(Cn2ncn(-c3ccc(OC(F)(F)F)cc3)c2=O)ccc1OC(C)(C)C(=O)O [Compound 79, 2-Methyl-2-(2-methyl-4-((5-oxo-4-(4-(trifluoromethoxy)phenyl)-4,5-dihydro-1H-1,2,4-triazol-1-yl)methyl)phenoxy)propionic acid] | 0.341 |  | 1.89 |  |  |  |  | 0.62 | 
10 | Cc1cc(SCn2ncn(-c3ccc(C(F)(F)F)cc3)c2=O)ccc1OCC(=O)O [Compound 16, 2-(2-Methyl-4-(((5-oxo-4-(4-(trifluoromethyl)phenyl)-4,5-dihydro-1H-1,2,4-triazol-1-yl)methyl)thio)phenoxy)acetic acid] |  |  |  | very good metabolic stability in human liver microsomes | > 2 |  |  |  | 
11 | Cc1cc(Cn2ncn(-c3ccc(C(C)C)cc3)c2=O)cc(C)c1OC(C)(C)C(=O)O [Compound 115, 2-(4-((4-(4-Isopropylphenyl)-5-oxo-4,5-dihydro-1H-1,2,4-triazol-1-yl)methyl)-2,6-dimethylphenoxy)-2-methylpropionic acid] | 0.008 |  | 1.76 |  |  |  |  |  | 
12 | Cc1cc(SCn2ncn(-c3ccc(C(F)(F)F)cc3)c2=O)cc(C)c1OC(C)(C)C(=O)O [Compound 198, 2-(2,6-Dimethyl-4-(((5-oxo-4-(4-(trifluoromethyl)phenyl)-4,5-dihydro-1H-1,2,4-triazol-1-yl)methyl)thio)phenoxy)-2-methylpropionic acid] | 0.289 |  | 2.85 |  |  |  |  |  | 
13 | CCc1ccc(-n2cnn(Cc3cc(C)c(OC(C)(C)C(=O)O)c(C)c3)c2=O)cc1 [Compound 131, 2-(4-((4-(4-Ethylphenyl)-5-oxo-4,5-dihydro-1H-1,2,4-triazol-1-yl)methyl)-2,6-dimethylphenoxy)-2-methylpropionic acid] | 0.014 | at nanomolar levels | 1.18 | very good metabolic stability in human liver microsomes | > 2 |  | at nanomolar levels | 0.067 | 
14 | Cc1cc(Cn2ncn(-c3ccc(Br)cc3)c2=O)cc(C)c1OC(C)(C)C(=O)O [Compound 55, 2-(4-((4-(4-Bromophenyl)-5-oxo-4,5-dihydro-1H-1,2,4-triazol-1-yl)methyl)-2,6-dimethylphenoxy)-2-methylpropionic acid] |  |  | 1.78 | very good metabolic stability in human liver microsomes | > 2 | 0.022 | at nanomolar levels |  | 
15 | CC(C)(Oc1ccc(Cn2ncn(-c3ccc(C(F)(F)F)cc3)c2=O)cc1Cl)C(=O)O [Compound 125, 2-(2-Chloro-4-((5-oxo-4-(4-(trifluoromethyl)phenyl)-4,5-dihydro-1H-1,2,4-triazol-1-yl)methyl)phenoxy)-2-methylpropionic acid] | 0.162 |  | 2.78 |  |  |  |  | 0.229 | 
16 | Cc1ccc(-n2cnn(Cc3cc(C)c(OC(C)(C)C(=O)O)c(C)c3)c2=O)cc1 [Compound 65, 2-(2,6-Dimethyl-4-((5-oxo-4-(p-tolyl)-4,5-dihydro-1H-1,2,4-triazol-1-yl)methyl)phenoxy)-2-methylpropionic acid] | 0.18 |  | 0.955 |  |  |  |  | 0.248 | 
17 | Cc1cc(Cn2ncn(-c3ccc(Cl)cc3)c2=O)cc(C)c1OC(C)(C)C(=O)O [Compound 67, 2-(4-((4-(4-Chlorophenyl)-5-oxo-4,5-dihydro-1H-1,2,4-triazol-1-yl)methyl)-2,6-dimethylphenoxy)-2-methylpropionic acid] | 0.167 |  | 1.83 |  |  |  |  | 0.047 | 
